Results on five compounds are retold here after ChEMBL document CHEMBL1944514, “Fluorescence detection of single nucleotide polymorphisms using nucleic acid probe containing tricyclic base-linked acyclonucleoside” (Bioorg Med Chem Lett, 2012).

What all share (format): nucleic-acid assay
The subject of test [1] is Nucleic Acid. Description: Binding affinity to 3'-r(CUUCCAGUUACAUAGAGA)-5' RNA assessed as change in melting temperature by spectrophotometry.
For test [2], the system named is Nucleic Acid. In words: Binding affinity to 3'-r(CUUCCAGUUGCAUAGAGA)-5' RNA assessed as change in melting temperature by spectrophotometry.
The test system of test [3] is Nucleic Acid. In words: Binding affinity to 3'-r(CUUCCAGUUCCAUAGAGA)-5' RNA assessed as change in melting temperature by spectrophotometry.
Test [4] relates to Nucleic Acid. In words: Binding affinity to 3'-r(CUUCCAGUUUCAUAGAGA)-5' RNA assessed as change in melting temperature by spectrophotometry.
Test [5] deals with Nucleic Acid. Description: Binding affinity to 3'-r(CUUCCAGUUACAUAGAGA)-5' RNA assessed as fluorescence quenching by spectrophotometry.
The subject of test [6] is Nucleic Acid. Description: Binding affinity to 3'-r(CUUCCAGUUGCAUAGAGA)-5' RNA assessed as fluorescence quenching by spectrophotometry.
Test [7] deals with Nucleic Acid. Description: Binding affinity to 3'-r(CUUCCAGUUCCAUAGAGA)-5' RNA assessed as fluorescence quenching by spectrophotometry.
In test [8] the test system is Nucleic Acid. Description: Binding affinity to 3'-r(CUUCCAGUUUCAUAGAGA)-5' RNA assessed as fluorescence quenching by spectrophotometry.

Activity calls are given as the source filed them. The calls are words filed in the database; no cut-off is given here.

A word on the ΔTm: it is the change in melting temperature against a reference sample.

For the compound `Cc1cn([C@H]2C[C@H](OP(=O)(O)OC[C@H]3O[C@@H](n4ccc(N)nc4=O)C[C@@H]3OP(=O)(O)OC[C@H]3O[C@@H](n4cnc5c(N)ncnc54)C[C@@H]3OP(=O)(O)OC[C@H]3O[C@@H](n4cnc5c(N)ncnc54)C[C@@H]3OP(=O)(O)OC[C@H]3O[C@@H](n4cnc5c(N)ncnc54)C[C@@H]3OP(=O)(O)OC[C@H](Cn3cnc4cc5c(N)nc(N)nc5nc43)OP(=O)(O)OC[C@H]3O[C@@H](n4cnc5c(=O)[nH]c(N)nc54)C[C@@H]3OP(=O)(O)CC[C@H]3O[C@@H](n4cc(C)c(=O)[nH]c4=O)C[C@@H]3OP(=O)(O)OC[C@H]3O[C@@H](n4cnc5c(N)ncnc54)C[C@@H]3OP(=O)(O)OC[C@H]3O[C@@H](n4cc(C)c(=O)[nH]c4=O)C[C@@H]3OP(=O)(O)OC[C@H]3O[C@@H](n4ccc(N)nc4=O)C[C@@H]3OP(=O)(O)OC[C@H]3O[C@@H](n4cc(C)c(=O)[nH]c4=O)C[C@@H]3OP(=O)(O)OC[C@H]3O[C@@H](n4ccc(N)nc4=O)C[C@@H]3OP(=O)(O)OC[C@H]3O[C@@H](n4cc(C)c(=O)[nH]c4=O)C[C@@H]3O)[C@@H](COP(=O)(O)O[C@H]3C[C@H](n4cnc5c(=O)[nH]c(N)nc54)O[C@@H]3COP(=O)(O)O[C@H]3C[C@H](n4cnc5c(=O)[nH]c(N)nc54)O[C@@H]3COP(=O)(O)O[C@H]3C[C@H](n4cnc5c(N)ncnc54)O[C@@H]3COP(=O)(O)O[C@H]3C[C@H](n4cnc5c(N)ncnc54)O[C@@H]3COP(=O)(O)O[C@H]3C[C@H](n4cnc5c(=O)[nH]c(N)nc54)O[C@@H]3CO)O2)c(=O)nc1N`, the values for the ΔTm in the test with Nucleic Acid [1], in the test with Nucleic Acid [2] and with Nucleic Acid [3] were -2.3 °C, -2.1 °C and -2 °C, respectively. Besides, the outcome in the test with Nucleic Acid [4] and with Nucleic Acid [8] was inactive. Moreover, the result in the test with Nucleic Acid [5], in the test with Nucleic Acid [6] and with Nucleic Acid [7] was Active.
With `Cc1cn([C@H]2C[C@H](OP(=O)(O)OC[C@H]3O[C@@H](n4ccc(N)nc4=O)C[C@@H]3OP(=O)(O)OC[C@H]3O[C@@H](n4cnc5c(N)ncnc54)C[C@@H]3OP(=O)(O)OC[C@H]3O[C@@H](n4cnc5c(N)ncnc54)C[C@@H]3OP(=O)(O)OC[C@H](Cn3cnc4cc5c(N)nc(N)nc5nc43)OP(=O)(O)OC[C@H]3O[C@@H](n4cc(C)c(=O)[nH]c4=O)C[C@@H]3OP(=O)(O)OC[C@H]3O[C@@H](n4cnc5c(=O)[nH]c(N)nc54)C[C@@H]3OP(=O)(O)CC[C@H]3O[C@@H](n4cc(C)c(=O)[nH]c4=O)C[C@@H]3OP(=O)(O)OC[C@H]3O[C@@H](n4cnc5c(N)ncnc54)C[C@@H]3OP(=O)(O)OC[C@H]3O[C@@H](n4cc(C)c(=O)[nH]c4=O)C[C@@H]3OP(=O)(O)OC[C@H]3O[C@@H](n4ccc(N)nc4=O)C[C@@H]3OP(=O)(O)OC[C@H]3O[C@@H](n4cc(C)c(=O)[nH]c4=O)C[C@@H]3OP(=O)(O)OC[C@H]3O[C@@H](n4ccc(N)nc4=O)C[C@@H]3OP(=O)(O)OC[C@H]3O[C@@H](n4cc(C)c(=O)[nH]c4=O)C[C@@H]3O)[C@@H](COP(=O)(O)O[C@H]3C[C@H](n4cnc5c(=O)[nH]c(N)nc54)O[C@@H]3COP(=O)(O)O[C@H]3C[C@H](n4cnc5c(=O)[nH]c(N)nc54)O[C@@H]3COP(=O)(O)O[C@H]3C[C@H](n4cnc5c(N)ncnc54)O[C@@H]3COP(=O)(O)O[C@H]3C[C@H](n4cnc5c(N)ncnc54)O[C@@H]3COP(=O)(O)O[C@H]3C[C@H](n4cnc5c(=O)[nH]c(N)nc54)O[C@@H]3CO)O2)c(=O)nc1N`, the outcome in the test with Nucleic Acid [1], in the test on Nucleic Acid [5] and in the test on Nucleic Acid [6] was inactive. The ΔTm with Nucleic Acid [2] was -1.9 °C; in the test on Nucleic Acid [3], -3.5 °C; in the test with Nucleic Acid [4], -1.8 °C. Moreover, the result in the test on Nucleic Acid [7] and in the test on Nucleic Acid [8] was Active.
Consider `Cc1cn([C@H]2C[C@H](OP(=O)(O)OC[C@H]3O[C@@H](n4ccc(N)nc4=O)C[C@@H]3OP(=O)(O)OC[C@H]3O[C@@H](n4cnc5c(N)ncnc54)C[C@@H]3OP(=O)(O)OC[C@H]3O[C@@H](n4cnc5c(N)ncnc54)C[C@@H]3OP(=O)(O)OC[C@H](Cn3cnc4cc5c(N)nc(N)nc5nc43)OP(=O)(O)OC[C@H]3O[C@@H](n4cnc5c(=O)[nH]c(N)nc54)C[C@@H]3OP(=O)(O)OC[C@H]3O[C@@H](n4cnc5c(=O)[nH]c(N)nc54)C[C@@H]3OP(=O)(O)CC[C@H]3O[C@@H](n4cc(C)c(=O)[nH]c4=O)C[C@@H]3OP(=O)(O)OC[C@H]3O[C@@H](n4cnc5c(N)ncnc54)C[C@@H]3OP(=O)(O)OC[C@H]3O[C@@H](n4cc(C)c(=O)[nH]c4=O)C[C@@H]3OP(=O)(O)OC[C@H]3O[C@@H](n4ccc(N)nc4=O)C[C@@H]3OP(=O)(O)OC[C@H]3O[C@@H](n4cc(C)c(=O)[nH]c4=O)C[C@@H]3OP(=O)(O)OC[C@H]3O[C@@H](n4ccc(N)nc4=O)C[C@@H]3OP(=O)(O)OC[C@H]3O[C@@H](n4cc(C)c(=O)[nH]c4=O)C[C@@H]3O)[C@@H](COP(=O)(O)O[C@H]3C[C@H](n4cnc5c(=O)[nH]c(N)nc54)O[C@@H]3COP(=O)(O)O[C@H]3C[C@H](n4cnc5c(=O)[nH]c(N)nc54)O[C@@H]3COP(=O)(O)O[C@H]3C[C@H](n4cnc5c(N)ncnc54)O[C@@H]3COP(=O)(O)O[C@H]3C[C@H](n4cnc5c(N)ncnc54)O[C@@H]3COP(=O)(O)O[C@H]3C[C@H](n4cnc5c(=O)[nH]c(N)nc54)O[C@@H]3CO)O2)c(=O)nc1N`, for which the results for the ΔTm in the test on Nucleic Acid [1], with Nucleic Acid [2] and in the test with Nucleic Acid [4] were -5.9 °C, -4.3 °C and -4.6 °C, respectively. The outcome in the test with Nucleic Acid [3] and in the test with Nucleic Acid [7] was inactive. Further, the outcome in the test on Nucleic Acid [5], in the test with Nucleic Acid [6] and in the test with Nucleic Acid [8] was Active.
Regarding `Cc1cn([C@H]2C[C@H](OP(=O)(O)OC[C@H]3O[C@@H](n4ccc(N)nc4=O)C[C@@H]3OP(=O)(O)OC[C@H]3O[C@@H](n4cnc5c(N)ncnc54)C[C@@H]3OP(=O)(O)OC[C@H]3O[C@@H](n4cnc5c(N)ncnc54)C[C@@H]3OP(=O)(O)OC[C@H](Cn3cnc4cc5c(N)ncnc5nc43)OP(=O)(O)OC[C@H]3O[C@@H](n4cnc5c(N)ncnc54)C[C@@H]3OP(=O)(O)OC[C@H]3O[C@@H](n4cnc5c(=O)[nH]c(N)nc54)C[C@@H]3OP(=O)(O)CC[C@H]3O[C@@H](n4cc(C)c(=O)[nH]c4=O)C[C@@H]3OP(=O)(O)OC[C@H]3O[C@@H](n4cnc5c(N)ncnc54)C[C@@H]3OP(=O)(O)OC[C@H]3O[C@@H](n4cc(C)c(=O)[nH]c4=O)C[C@@H]3OP(=O)(O)OC[C@H]3O[C@@H](n4ccc(N)nc4=O)C[C@@H]3OP(=O)(O)OC[C@H]3O[C@@H](n4cc(C)c(=O)[nH]c4=O)C[C@@H]3OP(=O)(O)OC[C@H]3O[C@@H](n4ccc(N)nc4=O)C[C@@H]3OP(=O)(O)OC[C@H]3O[C@@H](n4cc(C)c(=O)[nH]c4=O)C[C@@H]3O)[C@@H](COP(=O)(O)O[C@H]3C[C@H](n4cnc5c(=O)[nH]c(N)nc54)O[C@@H]3COP(=O)(O)O[C@H]3C[C@H](n4cnc5c(=O)[nH]c(N)nc54)O[C@@H]3COP(=O)(O)O[C@H]3C[C@H](n4cnc5c(N)ncnc54)O[C@@H]3COP(=O)(O)O[C@H]3C[C@H](n4cnc5c(N)ncnc54)O[C@@H]3COP(=O)(O)O[C@H]3C[C@H](n4cnc5c(=O)[nH]c(N)nc54)O[C@@H]3CO)O2)c(=O)nc1N`, the result with Nucleic Acid [5], with Nucleic Acid [6] and in the test with Nucleic Acid [7] was Active. Moreover, the outcome in the test on Nucleic Acid [8] was inactive.
Regarding `Cc1cn([C@H]2C[C@H](OP(=O)(O)OC[C@H]3O[C@@H](n4ccc(N)nc4=O)C[C@@H]3OP(=O)(O)OC[C@H]3O[C@@H](n4cnc5c(N)ncnc54)C[C@@H]3OP(=O)(O)OC[C@H]3O[C@@H](n4cnc5c(N)ncnc54)C[C@@H]3OP(=O)(O)OC[C@H](Cn3cnc4cc5c(N)ncnc5nc43)OP(=O)(O)OC[C@H]3O[C@@H](n4ccc(N)nc4=O)C[C@@H]3OP(=O)(O)OC[C@H]3O[C@@H](n4cnc5c(=O)[nH]c(N)nc54)C[C@@H]3OP(=O)(O)CC[C@H]3O[C@@H](n4cc(C)c(=O)[nH]c4=O)C[C@@H]3OP(=O)(O)OC[C@H]3O[C@@H](n4cnc5c(N)ncnc54)C[C@@H]3OP(=O)(O)OC[C@H]3O[C@@H](n4cc(C)c(=O)[nH]c4=O)C[C@@H]3OP(=O)(O)OC[C@H]3O[C@@H](n4ccc(N)nc4=O)C[C@@H]3OP(=O)(O)OC[C@H]3O[C@@H](n4cc(C)c(=O)[nH]c4=O)C[C@@H]3OP(=O)(O)OC[C@H]3O[C@@H](n4ccc(N)nc4=O)C[C@@H]3OP(=O)(O)OC[C@H]3O[C@@H](n4cc(C)c(=O)[nH]c4=O)C[C@@H]3O)[C@@H](COP(=O)(O)O[C@H]3C[C@H](n4cnc5c(=O)[nH]c(N)nc54)O[C@@H]3COP(=O)(O)O[C@H]3C[C@H](n4cnc5c(=O)[nH]c(N)nc54)O[C@@H]3COP(=O)(O)O[C@H]3C[C@H](n4cnc5c(N)ncnc54)O[C@@H]3COP(=O)(O)O[C@H]3C[C@H](n4cnc5c(N)ncnc54)O[C@@H]3COP(=O)(O)O[C@H]3C[C@H](n4cnc5c(=O)[nH]c(N)nc54)O[C@@H]3CO)O2)c(=O)nc1N`, the outcome in the test on Nucleic Acid [5], with Nucleic Acid [7] and in the test on Nucleic Acid [8] was Active. The result with Nucleic Acid [6] was inactive.
